# Tested on: human malignant U373 glioma cells
# Experiment: Computer tomography, signal density of cell pellets
# Assay type: cell-based
# Protocol: For CT and FACS human U373 glioma cells were grown under the same conditions in 75 cm^2 culture flasks (Corning Costar, Bodenheim, Germany) (70% confluency). Accutase™ (PAA laboratories, Pasching, Austria) was added to achieve detachment of the cells which were harvested and subsequently aliquoted into Eppendorf tubes (6×10^6 cells per tube). As in the investigations performed by fluorescence microscopy, the cells in the first tube served as a control (PBS only). The cells in the other tubes were incubated with 260 μM Ultravist, 260 μM TIBA in PBS and 26 μM, 260 μM and 2.6 mM conjugates 1-4 in PBS. After a 20 minute incubation period at 37° C. in an atmosphere of 5% CO2, the cells were washed three times in PBS and centrifuged at 800 rpm for 5 minutes.
# The inner ear spiral CT protocol consisted of: tube voltage 120 KV, effective mAs 550, time of imaging TI: 1.5, SL 0.75/0.75/4.5, FOV: 50 0/52, kernel: U70, window: intervertebral disc.
# 3D-images were obtained using InSpace Software (Syngo CT 2006G) (Siemens AG, Erlangen, Germany).
# After an incubation of 20 minutes at 37° C./5% CO2 the cells were washed three times with PBS buffer and centrifuged at 800 rpm (rounds per minute) for 5 minutes. The fluorescence was measured in Becton Dickinson FACSCalibur as described under 1.4. The computer tomography was performed as described under 1.5.1. The examinations were repeated two times. […]
# An Orbita CT spiral was used: tube voltage 120 KV, effective mAs 550, time of imaging TI: 1.5, SL 0.75/0.75/4.5, FOV: 50 0/52, GT: 0.0, kernel: U70, window: intervertebral disc. 3D images were made with the InSpace Software (Syngo CT 2006G) (Siemens AG, Erlangen, Germany). […]
substance,measurement,setting,value
"PKKKRKVK(FITC)GGK(TIBA) (FITC, GGK linker, TIBA) [conjugate 1, FITC-labelled correct NLS of the SV 40 T antigen with TIBA]",CT signal density of cell pellets,"26 μM, 20 min",only low signal density values
same,CT signal density of cell pellets,"260 μM, 20 min",significant increase in signal density
same,CT signal density of cell pellets,"2.6 mM, 20 min",significant increase in signal density
same,CT signal density of cell pellets,"varying concentrations (26 μM, 260 μM and 2.6 mM) and PBS alone",did result in differences in signal densities

# — patent US20090203877A1, “X-RAY-DENSE CONJUGATE” (Eberhard-Karls-Universitaet Tuebingen Universitaetsklinkum, priority 2006, published 2009)
